From patent US6682914B2, “Bioactive tetracyclic diterpene compounds and methods of preparation and use thereof” (Universidad del Pais Vasco/Euskal Herriko Unibersitatea, priority 2001, dated 2004)

System: Aspergillus nidulans
Assay: Conidiation-inducing bioassay modified for Aspergillus (conidiophores per mycelial pellet)
Assay type: cell-based
Details: control at least 28 hours
Description: Assays were carried out in shaken flask cultures using 25 mL. […] Determination of conidiation inducing activity was followed by microscopic observation of mycelium samples taken at different times. For these purposes, conidiation time was defined as the time at which 50% of the hyphal tips attained the final stage of conidiation (conidia-bearing tips), according to previously established criteria (Ugalde and Pitt, 1983), namely, the direct microscopic observation of three separate groups of 500 hyphal tips, and the determination of the proportion of hyphal tips in each group which bear conidia.
The bioassay procedure described above was used to assess qualitatively in other filamentous fungi, in particular, those of the genus Aspergillus, the conidiation-inducing activity of the compounds that were extracted, isolated and purified from Penicillium cyclopium in accordance with Example 1. […] Thus, the criteria employed to determine the time of conidiation in these cases was the appearance of at least two conidiophores (the specific phialide bearing structure for this genus) on average per mycellial pellet, measured from a minimum of 10 pellets.

Row | Compound | time of incubation to positive conidiogenic activity (at least two conidiophores per mycelial pellet) (100 ng/mL in culture medium) | time of incubation to positive conidiogenic activity (at least two conidiophores per mycelial pellet) (25-50 ng/mL in culture medium)
1 | CC1C(O)CC(O)C2(C)CCC3C4C(C)(C)CCC4(C)CC132 (stereo not drawn) [conidiogenol, (1R*, 3R*, 7R*, 8S*, 11R*, 12R*, 14S*, 15R*)-3,6,6,11,15-pentamethyl-tetracyclo[9.4.0.0^1,8.0^3,7]-pentadecan-12,14-diol] | 22 h | 
2 | CC1C(O)CC(=O)C2(C)CCC3C4C(C)(C)CCC4(C)CC132 (stereo not drawn) [conidiogenone, (1R*, 3R*, 7R*, 8S*, 11R*, 14S*, 15R*)-14-Hydroxy-3,6,6,11,15pentamethyl-tetracyclo[9.4.0.0^1,8.0^3,7]-pentadecan-12-one] |  | 22 h
